Measurements published in PubChem BioAssay (NCI).
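Exposure lasted 48 hours, with cells grown in 96-well plates and compounds tested at five concentrations. GI50 marks 50% less growth. TGI is the concentration that stops growth completely.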

Experiments:
Assay in all cases: DTP human tumour cell line panel, 48 h
HT29 colon = test system: HT29 colon
HCC-2998 colon = test system: HCC-2998 colon
SR leukemia = test system: SR leukemia
NCI/ADR-RES ovarian = test system: NCI/ADR-RES ovarian
EKVX NSCLC = test system: EKVX NSCLC
HCT-15 colon = test system: HCT-15 colon
CCRF-CEM leukemia = test system: CCRF-CEM leukemia
ACHN renal = test system: ACHN renal
SF-295 CNS = test system: SF-295 CNS
MALME-3M melanoma = test system: MALME-3M melanoma
NCI-H23 lung = test system: NCI-H23 lung
KM12 colon = test system: KM12 colon
OVCAR-4 ovarian = test system: OVCAR-4 ovarian
OVCAR-8 ovarian = test system: OVCAR-8 ovarian
HCT-116 colon = test system: HCT-116 colon
MDA-MB-435 = test system: MDA-MB-435
SNB-75 CNS = test system: SNB-75 CNS
SK-MEL-2 melanoma = test system: SK-MEL-2 melanoma
IGROV1 ovarian = test system: IGROV1 ovarian
SK-OV-3 ovarian = test system: SK-OV-3 ovarian
SN12C renal = test system: SN12C renal
SK-MEL-28 melanoma = test system: SK-MEL-28 melanoma
SF-539 CNS = test system: SF-539 CNS
DU-145 prostate = test system: DU-145 prostate
HOP-62 NSCLC = test system: HOP-62 NSCLC
BT-549 breast = test system: BT-549 breast
T-47D breast = test system: T-47D breast
HS 578T breast = test system: HS 578T breast
TK-10 renal = test system: TK-10 renal
NCI-H460 lung = test system: NCI-H460 lung
LOX IMVI melanoma = test system: LOX IMVI melanoma
MDA-MB-231 breast = test system: MDA-MB-231 breast
OVCAR-5 ovarian = test system: OVCAR-5 ovarian
COLO 205 colon = test system: COLO 205 colon
A498 renal = test system: A498 renal
A549 NSCLC = test system: A549 NSCLC
SW-620 colon = test system: SW-620 colon
NCI-H522 lung = test system: NCI-H522 lung
SNB-19 CNS = test system: SNB-19 CNS
MCF7 breast = test system: MCF7 breast
RPMI-8226 leukemia = test system: RPMI-8226 leukemia
HL-60(TB) leukemia = test system: HL-60(TB) leukemia
U251 CNS = test system: U251 CNS
NCI-H226 lung = test system: NCI-H226 lung
UACC-62 melanoma = test system: UACC-62 melanoma
M14 melanoma = test system: M14 melanoma
RXF 393 renal = test system: RXF 393 renal
OVCAR-3 ovarian = test system: OVCAR-3 ovarian
UO-31 renal = test system: UO-31 renal
SF-268 CNS = test system: SF-268 CNS
MDA-N = test system: MDA-N
SK-MEL-5 melanoma = test system: SK-MEL-5 melanoma
786-0 renal = test system: 786-0 renal
UACC-257 melanoma = test system: UACC-257 melanoma
K-562 leukemia = test system: K-562 leukemia
HOP-92 NSCLC = test system: HOP-92 NSCLC
PC-3 prostate = test system: PC-3 prostate
CAKI-1 renal = test system: CAKI-1 renal
MOLT-4 leukemia = test system: MOLT-4 leukemia

With `COc1ccc(-n2nnc3c(C#N)c(-c4ccccc4)c(C)n3c2=O)cc1` the TGI (HT29 colon) was > 100000 nM, the TGI (HCC-2998 colon) was > 100000 nM and the TGI (SR leukemia) was 91000 nM. For the same compound, the TGI (NCI/ADR-RES ovarian) was > 100000 nM, the TGI (EKVX NSCLC) was > 100000 nM and the TGI (HCT-15 colon) was > 100000 nM. For the same compound, the TGI (CCRF-CEM leukemia) was 58500 nM, the TGI (ACHN renal) was > 100000 nM and the TGI (SF-295 CNS) was > 100000 nM. For the same compound, the TGI (MALME-3M melanoma) was > 100000 nM, the TGI (NCI-H23 lung) was > 100000 nM and the TGI (KM12 colon) was > 100000 nM. For the same compound, the TGI (OVCAR-4 ovarian) was > 100000 nM, the TGI (OVCAR-8 ovarian) was > 100000 nM and the TGI (HCT-116 colon) was > 100000 nM. The TGI (MDA-MB-435) was > 100000 nM, the TGI (SNB-75 CNS) was 72100 nM and the TGI (SK-MEL-2 melanoma) was 83800 nM. The TGI (IGROV1 ovarian) was > 100000 nM, the TGI (SK-OV-3 ovarian) was > 100000 nM and the TGI (SN12C renal) was > 100000 nM. For the same compound, the TGI (SK-MEL-28 melanoma) was > 100000 nM, the TGI (SF-539 CNS) was > 100000 nM and the TGI (DU-145 prostate) was > 100000 nM. For the same compound, the TGI (HOP-62 NSCLC) was > 100000 nM, the TGI (BT-549 breast) was > 100000 nM and the TGI (T-47D breast) was > 100000 nM. For the same compound, the TGI (HS 578T breast) was > 100000 nM, the TGI (TK-10 renal) was > 100000 nM and the TGI (NCI-H460 lung) was > 100000 nM. For the same compound, the TGI (LOX IMVI melanoma) was > 100000 nM, the TGI (MDA-MB-231 breast) was 81600 nM and the TGI (OVCAR-5 ovarian) was > 100000 nM. For the same compound, the TGI (COLO 205 colon) was > 100000 nM, the TGI (A498 renal) was > 100000 nM and the TGI (A549 NSCLC) was > 100000 nM. For the same compound, the TGI (SW-620 colon) was > 100000 nM, the TGI (NCI-H522 lung) was > 100000 nM and the TGI (SNB-19 CNS) was > 100000 nM. For the same compound, the TGI (MCF7 breast) was > 100000 nM, the TGI (RPMI-8226 leukemia) was > 100000 nM and the TGI (HL-60(TB) leukemia) was 68200 nM. The TGI (U251 CNS) was > 100000 nM, the TGI (NCI-H226 lung) was > 100000 nM and the TGI (UACC-62 melanoma) was > 100000 nM. For the same compound, the TGI (M14 melanoma) was > 100000 nM, the TGI (RXF 393 renal) was 93800 nM and the TGI (OVCAR-3 ovarian) was > 100000 nM. For the same compound, the TGI (UO-31 renal) was > 100000 nM, the TGI (SF-268 CNS) was > 100000 nM and the TGI (MDA-N) was > 100000 nM. The TGI (SK-MEL-5 melanoma) was 48000 nM, the TGI (786-0 renal) was 40000 nM and the TGI (UACC-257 melanoma) was > 100000 nM. The TGI (K-562 leukemia) was > 100000 nM, the TGI (HOP-92 NSCLC) was > 100000 nM and the TGI (PC-3 prostate) was > 100000 nM. For the same compound, the TGI (CAKI-1 renal) was > 100000 nM.
With `COc1ccc2nc3cccc([N+](=O)[O-])c3c(NCCN(CCO)CCO)c2c1` the GI50 (HT29 colon) was 11.7 nM, the TGI (HT29 colon) was 43 nM and the GI50 (MOLT-4 leukemia) was 16.1 nM. It also gave a TGI (MOLT-4 leukemia) of 136 nM, a GI50 (HCC-2998 colon) of 13.7 nM and a TGI (HCC-2998 colon) of 33.1 nM. For the same compound, the GI50 (SR leukemia) was 17 nM, the TGI (SR leukemia) was 647 nM and the GI50 (NCI/ADR-RES ovarian) was 689 nM. It also gave a TGI (NCI/ADR-RES ovarian) of 4600 nM, a GI50 (EKVX NSCLC) of 107 nM and a TGI (EKVX NSCLC) of 698 nM. For the same compound, the GI50 (HCT-15 colon) was 157 nM, the TGI (HCT-15 colon) was 60800 nM and the GI50 (CCRF-CEM leukemia) was 32.6 nM. The TGI (CCRF-CEM leukemia) was 247 nM, the GI50 (ACHN renal) was 14.2 nM and the TGI (ACHN renal) was 49.5 nM. The GI50 (SF-295 CNS) was 30.4 nM, the TGI (SF-295 CNS) was 337 nM and the GI50 (MALME-3M melanoma) was 15.8 nM. It also gave a TGI (MALME-3M melanoma) of 40.8 nM, a GI50 (NCI-H23 lung) of 20.2 nM and a TGI (NCI-H23 lung) of 48 nM. The GI50 (KM12 colon) was 36.7 nM, the TGI (KM12 colon) was 202 nM and the GI50 (OVCAR-4 ovarian) was 22.2 nM. For the same compound, the TGI (OVCAR-4 ovarian) was 68.5 nM, the GI50 (OVCAR-8 ovarian) was 14 nM and the TGI (OVCAR-8 ovarian) was 138 nM. The GI50 (HCT-116 colon) was 15.4 nM, the TGI (HCT-116 colon) was 607 nM and the GI50 (MDA-MB-435) was 17.5 nM. For the same compound, the TGI (MDA-MB-435) was 40.6 nM, the GI50 (SNB-75 CNS) was 74.7 nM and the TGI (SNB-75 CNS) was 225 nM. The GI50 (SK-MEL-2 melanoma) was 11.7 nM, the TGI (SK-MEL-2 melanoma) was 22.4 nM and the GI50 (IGROV1 ovarian) was 32.9 nM. For the same compound, the TGI (IGROV1 ovarian) was 242 nM, the GI50 (SK-OV-3 ovarian) was 106 nM and the TGI (SK-OV-3 ovarian) was 771 nM. For the same compound, the GI50 (SN12C renal) was 48.6 nM, the TGI (SN12C renal) was 443 nM and the GI50 (SK-MEL-28 melanoma) was 44.4 nM. It also gave a TGI (SK-MEL-28 melanoma) of 414 nM, a GI50 (SF-539 CNS) of 89.3 nM and a TGI (SF-539 CNS) of 270 nM. For the same compound, the GI50 (DU-145 prostate) was 14 nM, the TGI (DU-145 prostate) was 717 nM and the GI50 (HOP-62 NSCLC) was 30.4 nM. For the same compound, the TGI (HOP-62 NSCLC) was 153 nM, the GI50 (BT-549 breast) was 41.5 nM and the TGI (BT-549 breast) was 140 nM. The GI50 (T-47D breast) was 91.3 nM, the TGI (T-47D breast) was 1010 nM and the GI50 (HS 578T breast) was 64.7 nM. The TGI (HS 578T breast) was 272 nM, the GI50 (TK-10 renal) was 30.7 nM and the TGI (TK-10 renal) was 229 nM. The GI50 (NCI-H460 lung) was 10.4 nM, the TGI (NCI-H460 lung) was 98.5 nM and the GI50 (LOX IMVI melanoma) was 37.9 nM. For the same compound, the TGI (LOX IMVI melanoma) was 180 nM, the GI50 (MDA-MB-231 breast) was 38.5 nM and the TGI (MDA-MB-231 breast) was 420 nM. It also gave a GI50 (OVCAR-5 ovarian) of 29.1 nM, a TGI (OVCAR-5 ovarian) of 138 nM and a GI50 (COLO 205 colon) of 11.8 nM. The TGI (COLO 205 colon) was 31 nM, the GI50 (A498 renal) was 22 nM and the TGI (A498 renal) was 52.4 nM. It also gave a GI50 (A549 NSCLC) of 25.7 nM, a TGI (A549 NSCLC) of 403 nM and a GI50 (SW-620 colon) of 13.9 nM. For the same compound, the TGI (SW-620 colon) was 619 nM, the TGI (NCI-H522 lung) was 18 nM and the GI50 (SNB-19 CNS) was 129 nM. The TGI (SNB-19 CNS) was 1450 nM, the GI50 (MCF7 breast) was 13.8 nM and the TGI (MCF7 breast) was 548 nM. It also gave a GI50 (RPMI-8226 leukemia) of 15.5 nM, a TGI (RPMI-8226 leukemia) of 102 nM and a GI50 (HL-60(TB) leukemia) of 23.5 nM. The TGI (HL-60(TB) leukemia) was 1490 nM, the GI50 (U251 CNS) was 21 nM and the TGI (U251 CNS) was 136 nM. For the same compound, the GI50 (NCI-H226 lung) was 82.2 nM, the TGI (NCI-H226 lung) was 536 nM and the GI50 (UACC-62 melanoma) was 31.1 nM. The TGI (UACC-62 melanoma) was 109 nM, the GI50 (M14 melanoma) was 12.8 nM and the TGI (M14 melanoma) was 27.5 nM. For the same compound, the GI50 (RXF 393 renal) was 15.5 nM, the TGI (RXF 393 renal) was 32 nM and the GI50 (OVCAR-3 ovarian) was 18.7 nM. The TGI (OVCAR-3 ovarian) was 50.1 nM, the GI50 (UO-31 renal) was 53.9 nM and the TGI (UO-31 renal) was 184 nM. It also gave a GI50 (SF-268 CNS) of 33.2 nM, a TGI (SF-268 CNS) of 234 nM and a GI50 (MDA-N) of 23 nM. It also gave a TGI (MDA-N) of 76.9 nM, a TGI (SK-MEL-5 melanoma) of 17.5 nM and a GI50 (786-0 renal) of 26.8 nM. The TGI (786-0 renal) was 156 nM, the GI50 (UACC-257 melanoma) was 24.8 nM and the TGI (UACC-257 melanoma) was 59.9 nM. For the same compound, the GI50 (K-562 leukemia) was 13 nM, the TGI (K-562 leukemia) was 48.7 nM and the GI50 (HOP-92 NSCLC) was 27.8 nM. The TGI (HOP-92 NSCLC) was 82.9 nM, the TGI (PC-3 prostate) was 219 nM and the GI50 (CAKI-1 renal) was 38.2 nM. It also gave a TGI (CAKI-1 renal) of 330 nM.
